Test results from the NIST ThermoML archive (doi:10.1021/je901067c).

What was measured:
[1] = xn = mol fraction of the nth substance listed; conditions: 101 kPa, Liquid; for viscosity: Capillary tube (Ostwald / Ubbelohde) method
[2] = refractive index (Na D-line) (dimensionless); xn = mol fraction of the nth substance listed; conditions: 101 kPa, Liquid, Standard Abbe refractometry

CCCC(C)O (centres undefined) [pentan-2-ol] + CCC(C)=O
Conditions	mass density, 298.15 K [kg/m3]	mass density, 308.15 K [kg/m3]	mass density, 318.15 K [kg/m3]	refractive index, 298.15 K	refractive index, 308.15 K	refractive index, 318.15 K	viscosity, 298.15 K [mPa·s]	viscosity, 308.15 K [mPa·s]	viscosity, 318.15 K [mPa·s]
[1], x2 = 0	805.3	797	788.37	–	–	–	3.478	2.361	1.772
[1], x2 = 0.0824	804	795.54	786.83	–	–	–	2.664	1.778	1.344
[1], x2 = 0.1612	802.99	794.34	785.5	–	–	–	2.066	1.381	1.094
[1], x2 = 0.2401	802.04	793.29	784.32	–	–	–	1.69	1.105	0.897
[1], x2 = 0.3519	800.97	791.97	782.76	–	–	–	1.347	0.865	0.721
[1], x2 = 0.4396	800.31	791.07	781.66	–	–	–	1.131	0.731	0.642
[1], x2 = 0.5608	799.65	790.15	780.47	–	–	–	0.886	0.587	0.514
[1], x2 = 0.6494	799.34	789.63	779.91	–	–	–	0.743	0.518	0.457
[1], x2 = 0.7403	799.2	789.23	779.15	–	–	–	0.623	0.462	0.407
[1], x2 = 0.8491	799.26	789.02	778.67	–	–	–	0.505	0.406	0.366
[1], x2 = 0.9384	799.49	789.09	778.55	–	–	–	0.436	0.371	0.338
[2], x2 = 0	–	–	–	1.4032	1.399	1.395	–	–	–
[2], x2 = 0.0824	–	–	–	1.4014	1.3974	1.3937	–	–	–
[2], x2 = 0.1612	–	–	–	1.3998	1.3959	1.3923	–	–	–
[2], x2 = 0.2401	–	–	–	1.398	1.3941	1.3906	–	–	–
[2], x2 = 0.3519	–	–	–	1.3952	1.3914	1.3877	–	–	–
[2], x2 = 0.4396	–	–	–	1.3929	1.389	1.3852	–	–	–
[2], x2 = 0.5608	–	–	–	1.3895	1.3854	1.3813	–	–	–
[2], x2 = 0.6494	–	–	–	1.3868	1.3826	1.3782	–	–	–
[2], x2 = 0.7403	–	–	–	1.384	1.3796	1.375	–	–	–
[2], x2 = 0.8491	–	–	–	1.3803	1.3757	1.3711	–	–	–
[2], x2 = 0.9384	–	–	–	1.3772	1.3724	1.3679	–	–	–
